Laboratory results reported in PubChem BioAssay AID1963831 (Molecular Pharmacology Branch, DTP, NCI, 2024).

Test system: 889142-216-R-J1-PDC complex spheroid viability
Assay: Anticancer human tumor 889142-216-R-J1-PDC patient-derived bladder carcinoma cell line growth inhibition [POLQ]
Settings: for IC50: curve of first compound; for viability, T/C: stronger effect = lower value
Outline: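 Complex spheroid viability model combining PDC tumour cells with endothelial (HUVEC) and MSC stromal cells. Novobiocin, ART-558 or RP6685 were tested singly and in combination with standard and investigational anticancer drugs. Each was titrated in half-log steps from near clinical Cmax, or from 10 microM where Cmax was unknown.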

[1] = second compound 0.0316 µM, first compound 0.0316 µM
[2] = second compound 0.0316 µM, first compound 0.1 µM
[3] = second compound 0.0316 µM, first compound 0.316 µM
[4] = second compound 0.0316 µM, first compound 1 µM
[5] = second compound 0.0316 µM, first compound 3.16 µM
[6] = second compound 0.0316 µM, first compound 10 µM
[7] = second compound 0.1 µM, first compound 0.0316 µM
[8] = second compound 0.1 µM, first compound 0.1 µM
[9] = second compound 0.1 µM, first compound 0.316 µM
[10] = second compound 0.1 µM, first compound 1 µM
[11] = second compound 0.1 µM, first compound 3.16 µM
[12] = second compound 0.1 µM, first compound 10 µM
[13] = second compound 0.316 µM, first compound 0.0316 µM
[14] = second compound 0.316 µM, first compound 0.1 µM
[15] = second compound 0.316 µM, first compound 0.316 µM
[16] = second compound 0.316 µM, first compound 1 µM
[17] = second compound 0.316 µM, first compound 3.16 µM
[18] = second compound 0.316 µM, first compound 10 µM
[19] = second compound 1 µM, first compound 0.0316 µM
[20] = second compound 1 µM, first compound 0.1 µM
[21] = second compound 1 µM, first compound 0.316 µM
[22] = second compound 1 µM, first compound 1 µM
[23] = second compound 1 µM, first compound 3.16 µM
[24] = second compound 1 µM, first compound 10 µM
[25] = second compound 3.16 µM, first compound 0.0316 µM
[26] = second compound 3.16 µM, first compound 0.1 µM
[27] = second compound 3.16 µM, first compound 0.316 µM
[28] = second compound 3.16 µM, first compound 1 µM
[29] = second compound 3.16 µM, first compound 3.16 µM
[30] = second compound 3.16 µM, first compound 10 µM
[31] = second compound 10 µM, first compound 0.0316 µM
[32] = second compound 10 µM, first compound 0.1 µM
[33] = second compound 10 µM, first compound 0.316 µM
[34] = second compound 10 µM, first compound 1 µM
[35] = second compound 10 µM, first compound 3.16 µM
[36] = second compound 10 µM, first compound 10 µM
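Also: spheroids exposed to compounds for seven days.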
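For viability, T/C in this document: 100% = DMSO vehicle control viability.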

Work on `CC1COCCN1c1cc(C2(O)CC3CCC(C2)O3)c2cnn(-c3ccn[nH]3)c2n1` (centres undefined) + Nc1ccc(C#CCN(C(=O)Cc2ncc(C(F)(F)F)cc2C(F)(F)F)c2ccc(F)cc2)nn1 yielded an IC50 (second compound 0.0316 µM) of 101 nM, an IC50 (second compound 0.1 µM) of 251 nM and an IC50 (second compound 0.316 µM) of 209 nM. For the same compound, the IC50 (second compound 1 µM) was 99.7 nM, the IC50 (second compound 3.16 µM) was 121 nM and the IC50 (second compound 10 µM) was 108 nM. It also gave a viability, T/C [1] of 63.7%, a viability, T/C [2] of 47.1% and a viability, T/C [3] of 39.1%. It also gave a viability, T/C [4] of 35.1%, a viability, T/C [5] of 30.5% and a viability, T/C [6] of 20.3%. For the same compound, the viability, T/C [7] was 67.2%, the viability, T/C [8] was 56.4% and the viability, T/C [9] was 49.4%. It also gave a viability, T/C [10] of 39.4%, a viability, T/C [11] of 31.6% and a viability, T/C [12] of 26.1%. It also gave a viability, T/C [13] of 71.9%, a viability, T/C [14] of 62% and a viability, T/C [15] of 40.9%. For the same compound, the viability, T/C [16] was 35%, the viability, T/C [17] was 27% and the viability, T/C [18] was 20%. It also gave a viability, T/C [19] of 64.5%, a viability, T/C [20] of 47.3% and a viability, T/C [21] of 37.4%. The viability, T/C [22] was 35.4%, the viability, T/C [23] was 29.6% and the viability, T/C [24] was 19.4%. It also gave a viability, T/C [25] of 57.8%, a viability, T/C [26] of 49.3% and a viability, T/C [27] of 44.8%. For the same compound, the viability, T/C [28] was 36%, the viability, T/C [29] was 31.2% and the viability, T/C [30] was 16.6%. It also gave a viability, T/C [31] of 67%, a viability, T/C [32] of 44.3% and a viability, T/C [33] of 42.1%. It also gave a viability, T/C [34] of 31.2%, a viability, T/C [35] of 26.8% and a viability, T/C [36] of 16.2%.

In the case of `C#Cc1c(F)ccc2cc(O)cc(-c3ncc4c(N5CC6CCC(C5)N6)nc(OCC56CCCN5CC(F)C6)nc4c3F)c12` (centres undefined) + COC1C(OC(N)=O)C(O)C(Oc2ccc3c(O)c(NC(=O)c4ccc(O)c(CC=C(C)C)c4)c(=O)oc3c2C)OC1(C)C, the IC50 (second compound 0.0316 µM) is reported as 5380 nM, the IC50 (second compound 0.1 µM) is reported as 9080 nM and the IC50 (second compound 0.316 µM) is reported as 5820 nM. It also gave an IC50 (second compound 1 µM) of 4770 nM, an IC50 (second compound 3.16 µM) of 5530 nM and an IC50 (second compound 10 µM) of 4960 nM. It also gave a viability, T/C [1] of 99.2%, a viability, T/C [2] of 111% and a viability, T/C [3] of 66.3%. It also gave a viability, T/C [4] of 88.7%, a viability, T/C [5] of 63.7% and a viability, T/C [6] of 34.5%. The viability, T/C [7] was 108%, the viability, T/C [8] was 109% and the viability, T/C [9] was 77.4%. The viability, T/C [10] was 89.5%, the viability, T/C [11] was 81.5% and the viability, T/C [12] was 44.3%. It also gave a viability, T/C [13] of 119%, a viability, T/C [14] of 113% and a viability, T/C [15] of 82.5%. It also gave a viability, T/C [16] of 97.3%, a viability, T/C [17] of 76.1% and a viability, T/C [18] of 29.4%. For the same compound, the viability, T/C [19] was 89.1%, the viability, T/C [20] was 91.8% and the viability, T/C [21] was 95.4%. It also gave a viability, T/C [22] of 82%, a viability, T/C [23] of 62.8% and a viability, T/C [24] of 27.8%. The viability, T/C [25] was 96.9%, the viability, T/C [26] was 84.9% and the viability, T/C [27] was 95%. For the same compound, the viability, T/C [28] was 79.2%, the viability, T/C [29] was 78.2% and the viability, T/C [30] was 23.2%. The viability, T/C [31] was 103%, the viability, T/C [32] was 87.2% and the viability, T/C [33] was 76.1%. It also gave a viability, T/C [34] of 76.8%, a viability, T/C [35] of 71.5% and a viability, T/C [36] of 27.1%.
